ChEMBL document CHEMBL4811256, “Synthesis and evaluation of multi-target-directed ligands with BACE-1 inhibitory and Nrf2 agonist activities as potential agents against Alzheimer's disease” (Eur J Med Chem, 2021)
Calls of active or inactive are those of the source. The rule behind the calls is not given here.

Tests used:
[1] = Glutathione peroxidase-like activity in pH 7.5 potassium phosphate buffer assessed as catalytic reduction of H2O2 by measuring initial velocity at 25 degreeC using GSH in presence of NADPH by UV absorbance analysis (reference value: 30.41+/- 2.06 microM/min); type: functional
in vitro = conditions: PAMPA
PC-12 [2] = experiment: Cytotoxicity against rat PC-12 cells at 25 uM incubated for 24 hrs by MTT assay; type: cell-based; conditions: pc-12, 24 h
Beta-secretase 1 = Beta-secretase 1 (Homo sapiens, UniProt P56817); experiment: Inhibition of BACE-1 (unknown origin) using Mca-Ser-Glu-Val-Asn-Leu-Asp-Ala-Glu-Phe-Lys-Dnp-OH as substrate preincubated for 30 mins followed by substrate addition and measured after 1 hr by FRET assay
PC-12 [3] = experiment: Neuroprotective activity against H2O2-induced cell damage in rat PC-12 cells assessed as decrease in cell death at 10 uM pretreated for 12 hrs followed by H2O2 challenge by MTT assay; type: functional, cell-based
PC-12 [4] = experiment: Protection against 6-OHDA-induced ROS accumulation in rat PC-12 cells assessed as intracellular ROS level by measuring mean fluorescence intensity pretreated for 12 hrs followed by 6-OHDA challenge by DCFH-DA staining based flow cytometry; type: functional, cell-based; conditions: dose 2.5-10 µM
PC-12 [5] = experiment: Protection against H2O2-induced ROS accumulation in rat PC-12 cells assessed as intracellular ROS level by measuring mean fluorescence intensity pretreated for 12 hrs followed by H2O2 challenge by DCFH-DA staining based flow cytometry; type: functional, cell-based; conditions: dose 2.5-10 µM
PC-12 [6] = experiment: Cytoprotective activity against H2O2- induced cell death in rat PC-12 cells assessed as increase in viable cells pretreated for 12 hrs followed by H2O2 challenge by MTT assay; type: functional, cell-based; conditions: dose 2.5-10 µM
HEK293 = experiment: Inhibition of amyloid beta(1 to 40) secretion in human HEK293T cells transfected with human APP harboring Swedish double mutant K595N/M596L at 1 uM measured after 24 hrs by ELISA; type: functional, cell-based

Beta-secretase 1, sequence (P56817 whole entry): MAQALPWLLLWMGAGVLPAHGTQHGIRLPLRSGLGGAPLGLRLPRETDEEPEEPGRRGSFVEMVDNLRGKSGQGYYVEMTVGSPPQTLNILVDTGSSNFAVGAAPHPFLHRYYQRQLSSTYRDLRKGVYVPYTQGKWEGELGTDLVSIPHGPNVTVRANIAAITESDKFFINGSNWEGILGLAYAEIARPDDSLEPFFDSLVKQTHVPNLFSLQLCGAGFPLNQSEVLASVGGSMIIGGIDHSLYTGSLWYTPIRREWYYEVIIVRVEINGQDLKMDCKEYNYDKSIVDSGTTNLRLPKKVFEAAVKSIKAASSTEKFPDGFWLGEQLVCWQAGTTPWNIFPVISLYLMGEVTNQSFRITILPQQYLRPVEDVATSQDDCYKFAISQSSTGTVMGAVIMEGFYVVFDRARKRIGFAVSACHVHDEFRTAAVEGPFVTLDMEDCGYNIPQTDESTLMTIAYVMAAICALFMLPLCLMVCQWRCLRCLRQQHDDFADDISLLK

Row | SMILES | V0 [1] | IC50 (Beta-secretase 1) | Activity (PC-12 [3]) | also measured
1 | Cc1ccc2[se]n(-c3ccc(F)c([C@]4(C)CS(=O)(=O)N(C)C(N)=N4)c3)c(=O)c2c1 | 146 µM/min |  |  | 
2 | CCn1cc(C(=O)O)c(=O)c2cc(F)c(N3CCNC(C)C3)c(F)c21 (configuration not stated) [LOMEFLOXACIN] |  |  |  | Papp at 16 h (in vitro): 2.59 ×10⁻⁶ cm/s
3 | CN1C(N)=N[C@](C)(c2cc(-n3[se]c4c(F)cccc4c3=O)ccc2F)CS1(=O)=O | 242 µM/min |  |  | 
4 | Clc1cccc(Cl)c1N=C1NCCN1 [CLONIDINE] |  |  |  | Papp at 16 h (in vitro): 7.36 ×10⁻⁶ cm/s
5 | CN1C(N)=N[C@](C)(c2cc(-n3[se]c4ccccc4c3=O)ccc2F)CS1(=O)=O | 156 µM/min | 1920 nM | Active | Activity (PC-12 [2]): Non-Toxic
6 | COc1ccc2[se]n(-c3ccc(F)c([C@]4(C)CS(=O)(=O)N(C)C(N)=N4)c3)c(=O)c2c1 | 161 µM/min | 1490 nM | Active | Activity (PC-12 [2]): Non-Toxic
7 | CN1C(N)=N[C@](C)(c2cc(-n3[se]c4cc(F)c(F)cc4c3=O)ccc2F)CS1(=O)=O | 163 µM/min | 1120 nM | Active | Activity (PC-12 [2]): Non-Toxic
8 | CN1C(N)=N[C@](C)(c2cc(-n3[se]c4cc(C(F)(F)F)ccc4c3=O)ccc2F)CS1(=O)=O | 145 µM/min |  |  | 
9 | Cc1ccc2c(=O)n(-c3ccc(F)c([C@]4(C)CS(=O)(=O)N(C)C(N)=N4)c3)[se]c2c1 | 130 µM/min |  |  | 
10 | COc1ccc2c(=O)n(-c3ccc(F)c([C@]4(C)CS(=O)(=O)N(C)C(N)=N4)c3)[se]c2c1 | 114 µM/min | 1550 nM |  | 
11 | CN1C(N)=N[C@](C)(c2cc(NC(=O)c3ccc(F)cn3)ccc2F)CS1(=O)=O | 29.4 µM/min |  | Active | Activity (PC-12 [4]): inactive; Activity (PC-12 [5]): inactive
12 | CN1C(N)=N[C@](C)(c2cc(-n3[se]c4ccc(F)cc4c3=O)ccc2F)CS1(=O)=O | 197 µM/min | 1950 nM | Active | Activity (PC-12 [2]): Non-Toxic
13 | Cc1cccc2c(=O)n(-c3ccc(F)c([C@]4(C)CS(=O)(=O)N(C)C(N)=N4)c3)[se]c12 | 217 µM/min |  |  | 
14 | CN1C(N)=N[C@](C)(c2cc(-n3[se]c4ccc(C(F)(F)F)cc4c3=O)ccc2F)CS1(=O)=O | 185 µM/min | 1600 nM | Active | Activity (PC-12 [2]): Non-Toxic
15 | C[C@]12CC[C@@H]3c4ccc(O)cc4CC[C@H]3[C@@H]1CC[C@@H]2O [ESTRADIOL] |  |  |  | Papp at 16 h (in vitro): 12.2 ×10⁻⁶ cm/s
16 | O=c1c2ccccc2[se]n1-c1ccccc1 | 153 µM/min |  | Active | Activity (PC-12 [6]): Dose-Dependent Effect; inhibition (HEK293): inactive; Activity (PC-12 [4]): Dose-Dependent Effect; Activity (PC-12 [5]): Dose-Dependent Effect
17 | CN1C(C(=O)Nc2ccccn2)=C(O)c2ccccc2S1(=O)=O [PIROXICAM] |  |  |  | Papp at 16 h (in vitro): 3.07 ×10⁻⁶ cm/s
18 | CN1C(N)=N[C@](C)(c2cc(-n3[se]c4c(C(F)(F)F)cccc4c3=O)ccc2F)CS1(=O)=O | 180 µM/min |  |  | 
